Here are results for 15 compounds from ChEMBL document CHEMBL3272119, “Adrenergic agents. 8.1 Synthesis and beta-adrenergic agonist activity of some 3-tert-butylamino-2-(substituted phenyl)-1-propanols” (J Med Chem, 1977).

The species entered for assay [1] is Cavia porcellus. As to the kind of experiment: Selectivity ratio of ED25 for beta-1 adrenergic receptor in guinea pig right atria to ED50 for beta-2 adrenergic receptor in guinea pig tracheal chain.
Assay [2] concerns the target Beta-1 adrenergic receptor (Cavia porcellus) (UniProt B0FL73). Description: Intrinsic activity at beta-1 adrenergic receptor in guinea pig right atria assessed as increase in contraction rate of spontaneously beating right atria relative to isoproterenol.
The target in assay [3] is Beta-2 adrenergic receptor (Cavia porcellus) (UniProt Q8K4Z4). To be noted: Trachea.
Beta-2 adrenergic receptor (Cavia porcellus), sequence (Q8K4Z4 whole entry, looked up): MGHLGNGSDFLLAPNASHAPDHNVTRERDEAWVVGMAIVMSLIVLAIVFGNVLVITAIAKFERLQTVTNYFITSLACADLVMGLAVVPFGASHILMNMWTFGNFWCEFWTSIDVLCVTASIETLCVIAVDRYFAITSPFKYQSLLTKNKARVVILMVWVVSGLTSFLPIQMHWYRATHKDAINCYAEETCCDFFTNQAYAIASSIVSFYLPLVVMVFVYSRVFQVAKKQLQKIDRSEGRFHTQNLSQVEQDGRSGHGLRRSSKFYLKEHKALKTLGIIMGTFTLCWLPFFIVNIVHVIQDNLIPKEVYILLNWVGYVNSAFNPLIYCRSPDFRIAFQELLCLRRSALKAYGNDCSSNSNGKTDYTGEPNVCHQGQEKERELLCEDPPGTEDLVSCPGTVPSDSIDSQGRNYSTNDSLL
Description: Agonist activity at beta-2 adrenergic receptor in guinea pig tracheal chain assessed as relaxation of spontaneously contracted tracheal smooth muscle
Assay [4] concerns the target Beta-1 adrenergic receptor (Cavia porcellus) (UniProt B0FL73).
The target is the same in assay [5]. As to the kind of experiment: Agonist activity at beta-1 adrenergic receptor in guinea pig right atria assessed as increase in contraction rate of spontaneously beating right atria at 1.1 X 10^-5 M relative to control.
For assay [6] the target is unchanged. As to the kind of experiment: Agonist activity at beta-1 adrenergic receptor in guinea pig right atria assessed as increase in contraction rate of spontaneously beating right atria at 6.3 X 10^-5 M relative to control.

Beta-1 adrenergic receptor (Cavia porcellus), sequence (B0FL73 1-467): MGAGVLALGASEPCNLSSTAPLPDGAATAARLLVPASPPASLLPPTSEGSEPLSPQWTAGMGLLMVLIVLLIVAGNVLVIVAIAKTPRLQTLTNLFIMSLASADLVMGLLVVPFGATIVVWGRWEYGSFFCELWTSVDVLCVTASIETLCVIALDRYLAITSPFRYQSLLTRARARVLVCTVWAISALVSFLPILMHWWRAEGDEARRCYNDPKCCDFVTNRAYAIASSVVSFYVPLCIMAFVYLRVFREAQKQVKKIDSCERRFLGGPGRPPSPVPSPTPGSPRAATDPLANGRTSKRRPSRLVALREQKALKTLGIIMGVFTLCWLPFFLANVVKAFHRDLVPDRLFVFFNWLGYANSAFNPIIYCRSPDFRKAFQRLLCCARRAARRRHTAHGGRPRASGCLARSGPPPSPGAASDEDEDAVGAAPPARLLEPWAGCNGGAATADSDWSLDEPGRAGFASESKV

On to `CC(C)(C)NCC(O)c1ccc(O)c(N)c1` (stereo not drawn), for which the Selectivity ratio in assay [1] came to 5.2.

In the case of `CC(C)(C)NCC(CO)c1ccc(O)cc1` (stereo not drawn), the Intrinsic activity in assay [2] turned out to be 0.3. For the same compound, the Selectivity ratio in assay [1] was 24. Moreover, the ED50 in assay [3] is 4100 nM. Besides, the ED25 in assay [4] was determined as 9.8 ×10⁻⁵ M.

With `CC(C)(C)NCC(CO)c1ccc(O)c(CO)c1` (stereo not drawn), in assay [2], the Intrinsic activity came to 0.25. The Selectivity ratio in assay [1] is 10. Also, the ED50 in assay [3] is 4600 nM. This compound also registered an ED25 in assay [4] of 4.7 ×10⁻⁵ M.

As to `CC(C)(C)NCC(CO)c1ccc(O)c(N)c1` (stereo not drawn), in assay [2], the Intrinsic activity is 0.7. Besides, the Selectivity ratio in assay [1] is 1.4. Moreover, in assay [3], the ED50 is 9.6 ×10⁻⁷ M. In assay [4], the ED25 stood at 1300 nM.

`CC(C)(C)NCC(CO)c1ccc(O)c(NS(C)(=O)=O)c1` (stereo not drawn): the Activity in assay [5] came to 18%. The compound also displayed an ED50 in assay [3] of 6 ×10⁻⁷ M.

For the compound `CC(C)(C)NCC(CO)c1ccc(O)c(NC(N)=O)c1` (stereo not drawn), the Intrinsic activity in assay [2] is 0.3. The Selectivity ratio in assay [1] was determined as 18. Moreover, in assay [3], the ED50 worked out at 5.2 ×10⁻⁷ M. The ED25 in assay [4] worked out at 9300 nM.

Consider `CC(C)(C)NCC(CO)c1ccc(O)c(O)c1` (stereo not drawn), for which the Intrinsic activity in assay [2] was 1. In assay [1], the Selectivity ratio was 2.9. In assay [3], this compound came in with an ED50 of 3.3 ×10⁻⁸ M. In assay [4], this compound displayed an ED25 of 9.6 ×10⁻⁸ M.

`CC(C)(C)NCC(O)c1ccc(O)c(NC(N)=O)c1` (stereo not drawn): the Intrinsic activity in assay [2] is 0.5. Also, the Selectivity ratio in assay [1] turned out to be 34. The ED50 in assay [3] was 1.9 ×10⁻⁸ M. This compound gave an ED25 in assay [4] of 6.4 ×10⁻⁷ M.

`CC(C)NCC(O)c1ccc(O)c(NS(C)(=O)=O)c1` (stereo not drawn): in assay [2], the Intrinsic activity was 0.7. For the same compound, in assay [1], the Selectivity ratio came to 3. Moreover, in assay [3], the ED50 was 2.6 ×10⁻⁸ M. For the same compound, in assay [4], the ED25 worked out at 7.6 ×10⁻⁸ M.

As to `CC(C)(C)NCC(O)c1ccc(O)c(CO)c1` (stereo not drawn), the Intrinsic activity in assay [2] stood at 0.7. The Selectivity ratio in assay [1] was 28. This compound also registered an ED50 in assay [3] of 1.1 ×10⁻⁸ M. The same compound had an ED25 in assay [4] of 3.1 ×10⁻⁷ M.

In the case of `CC(C)NCC(O)c1ccc(O)cc1` (stereo not drawn), the Intrinsic activity in assay [2] is 0.3. Besides, the Selectivity ratio in assay [1] was 0.7. For the same compound, the ED50 in assay [3] came out at 1.1 ×10⁻⁷ M. Moreover, the ED25 in assay [4] is 7.7 ×10⁻⁸ M.

On to `CC(C)NCC(C)(O)c1ccc(O)c(O)c1` (stereo not drawn), for which the Activity in assay [6] stood at 18%. Further, in assay [3], the ED50 was 3400 nM.

Regarding `CC(C)(C)NCC(O)c1ccc(O)c(O)c1` (stereo not drawn), the Intrinsic activity in assay [2] stood at 1. Moreover, the Selectivity ratio in assay [1] worked out at 5.5. Further, the ED50 in assay [3] was 1.3 nM. The same compound displayed an ED25 in assay [4] of 7.1 nM.

In assay [3], `COC(CNC(C)C)c1ccc(O)c(O)c1` (stereo not drawn) registered an ED50 of 1600 nM. Further, the ED25 in assay [4] was determined as 3 ×10⁻⁷ M.

Turning to `CC(C)NCC(O)c1ccc(O)c(O)c1` (stereo not drawn), in assay [3], the ED50 was 7.1 nM.
